# Measurements taken from patent US20070123586A1, “Nitroso derivatives of diphenylamine” (priority 2003, published 2007).
# Key:
# [1] = Spontaneous nitric oxide release: nitrites+nitrates titrated by Griess colorimetry with nitrate reductase; details: test product final concentration 150 μM, incubated four hours at 37° C., pH 7.5 PBS buffer, Griess reagent, OD 540 nm
# Protocol: A solution of a compound of the invention of the formula I spontaneously releases nitric oxide. The nitrite ions resulting therefrom are titrated by colorimetry by means of a specific reagent (Griess). To take account of any release of nitrate ions in addition to the nitrite ions, bacterial nitrate reductase is added to the reaction medium, which makes it possible to reduce the nitrate ions formed.
# The reactions and measurements are performed in transparent 96-well plates. The test products are dissolved extemporaneously at a concentration of 3 mM in dimethyl sulfoxide. 95 μl of a reagent comprising nitrate reductase (0.18 U/ml in 0.100 mM pH 7.5, PBS buffer, β-NADPH 210 μM, FAD 5 μM) and 5 μl of the solution of the test product (final concentration of 150 μM) are then introduced into each well. After stirring, the mixture is incubated for four hours at 37° C. The reaction is then quenched by addition of 100 μl of the Griess reagent (Sigma G4410). This reagent is left to act for five minutes at room temperature, and the optical density is then read at 540 nm. This value is proportional to the concentration of nitrites+nitrates in the medium. A calibration range is made for each plate using NaNO2.
# The results are expressed in μmol/l (μM) of nitrites+nitrates released in Table I for some of the compounds of the formula I illustrated below.
# [2] = tested on: Human LDLs; experiment: Antioxidant effect: cupric ion-induced oxidation of human LDL (fluorescence); type: biochemical; details: human LDL 120 μg/ml, CuCl2, 37° C., fluorescence difference 2 h vs 24 h, from three concentrations
# Protocol: Human LDLs placed in aqueous solution in the presence of cupric ions, become spontaneously oxidized on their protein component, apolipoprotein-B. This oxidation makes the particle fluorescent, which is exploited to measure a pharmacological effect.
# The reactions and measurements are performed in black 96-well plates. 10 μl of a solution of the test product dissolved in dimethyl sulfoxide are first mixed with 170 μl of a solution of human LDL at a concentration of 120 μg/ml and 20 μl of 100 μM CuCl2. After stirring, the mixture is incubated for 2 hours at 37° C., and a first fluorescence reading is taken (excitation at 360 nm, reading at 460 nm). The mixture is then incubated for a further 22 hours, to take a second reading under the same conditions. The difference is proportionately smaller the greater the antioxidant power of the test product. Probucol is used as reference product at a concentration of 10 μM.
# The concentrations that inhibit 50% (IC50) of the oxidation are prepared from three concentrations of the test product. They are given in Table II below for some of the compounds of the formula I given as examples below.
# [3] = tested on: fatty Zucker rats; experiment: Hypotriglyceridaemiant activity in fatty Zucker rats; type: in vivo, rat; details: 9-week-old male Zucker rats, 200 mg/kg/day p.o. for eight days, after fasting four hours
# Protocol: The compounds were tested on fatty Zucker rats (Zucker L. M. et al., 1961, Fatty a new mutation in the rat, J. Hered., 52: 275-278). This animal is hyperphagic, obese and hyperinsulinaemic. It develops resistance to insulin, it is hyperlipidaemic, and has a large hypertriglyceridaemia.
# 9-week-old male Zucker rats were treated for eight days with the compounds of Example 2 and Example 5 at a dose of 200 mg/kg/day p.o. After fasting for four hours, a blood sample is taken to recover the plasma. […] The compound of Example 5 has a 21% […] effect (p<0.05) and reduces insulin by 45% (p<0.05).
Structure (SMILES),Nitrites—Nitrates released [1] [µM],melting point [°C],IC50 [2] [µM],reduction in triglycerides (plasma) [3] [%],reduction of insulinaemia (plasma insulin) [3] [%]
N#Cc1ccc(N(N=O)c2ccc(C(=O)O)cc2)cc1 [Example 14],69,–,–,–,–
"COc1ccc(N(N=O)c2ccc(C(=O)O)cc2)cc1 [Example 2, 4-[(4-Methoxyphenyl)(nitroso)amino]benzoic acid]",87,169 to 171,17,58,47
"COc1ccc(N(N=O)c2ccc(CO)cc2)cc1 [Example 8, {4-[(4-Methoxyphenyl)(nitroso)amino]phenyl}methanol]",88,–,18.4,–,–
CCOC(=O)c1ccc(N(N=O)c2ccc(S(C)(=O)=O)cc2)cc1 [Example 12],38,–,–,–,–
CCOC(=O)c1ccc(N(N=O)c2ccc(C#N)cc2)cc1 [Example 10],76,–,6.2,–,–
"O=NN(c1ccc(C(=O)O)cc1)c1ccc(C(=O)O)cc1 [Example 30, 4,4′-(Nitrosoimino)dibenzoic acid]",58,–,–,–,–
O=NN(c1ccc(C(=O)O)cc1)c1ccc([N+](=O)[O-])cc1 [Example 13],86,–,4.6,–,–
"COc1ccc(N(N=O)c2ccc(C#N)cc2)cc1 [Example 6, 4-[(4-Methoxyphenyl)(nitroso)amino]benzonitrile]",43,88 to 90,–,–,–
CS(=O)(=O)c1ccc(N(N=O)c2ccc(C(=O)O)cc2)cc1 [Example 15],88,–,–,–,–
O=NN(c1ccc(F)cc1)c1ccc(C(=O)O)cc1 [Example 19],79,–,–,–,–
COc1ccc(N(N=O)c2ccc(C(C)=O)cc2)cc1 [Example 18],81,–,–,–,–
COc1ccc(N(N=O)c2ccc(CC(=O)O)cc2)cc1 [Example 17],58,–,11.6,–,–
"O=NN(c1ccc(C(=O)O)cc1)c1ccc(C(F)(F)F)cc1 [Example 5, 4-{Nitroso[4-(trifluoromethyl)phenyl]amino}benzoic acid]",108,–,–,21,45
COc1ccc(N(N=O)c2ccc(C(N)=O)cc2)cc1 [Example 42],79,–,–,–,–
